Test results published in the NIST ThermoML archive (doi:10.1021/je900596d).

Conditions: Vibrating tube method

FC(F)=C(F)C(F)(F)F [hexafluoropropene]
Conditions | mass density [kg/m3]
323.21 K, 828.7 kPa, Fluid (supercritical or subcritical phases) | 54.45
323.21 K, 843.1 kPa, Fluid (supercritical or subcritical phases) | 55.34
323.21 K, 857.3 kPa, Fluid (supercritical or subcritical phases) | 56.72
323.21 K, 871.6 kPa, Fluid (supercritical or subcritical phases) | 57.78
323.21 K, 885.7 kPa, Fluid (supercritical or subcritical phases) | 58.95
323.21 K, 899.5 kPa, Fluid (supercritical or subcritical phases) | 60.25
323.21 K, 913.3 kPa, Fluid (supercritical or subcritical phases) | 61.27
323.21 K, 926.9 kPa, Fluid (supercritical or subcritical phases) | 62.44
323.21 K, 940.4 kPa, Fluid (supercritical or subcritical phases) | 63.5
323.21 K, 953.6 kPa, Fluid (supercritical or subcritical phases) | 64.78
323.21 K, 979.1 kPa, Fluid (supercritical or subcritical phases) | 66.9
323.21 K, 991.3 kPa, Fluid (supercritical or subcritical phases) | 67.99
323.21 K, 1002.7 kPa, Fluid (supercritical or subcritical phases) | 69.01
323.21 K, 1014.7 kPa, Fluid (supercritical or subcritical phases) | 70.07
323.21 K, 1026.1 kPa, Fluid (supercritical or subcritical phases) | 71.06
323.21 K, 1037.2 kPa, Fluid (supercritical or subcritical phases) | 72
323.21 K, 1048.9 kPa, Fluid (supercritical or subcritical phases) | 73.11
323.21 K, 1059.5 kPa, Fluid (supercritical or subcritical phases) | 74
323.21 K, 1071.8 kPa, Fluid (supercritical or subcritical phases) | 75.2
323.21 K, 1084.6 kPa, Fluid (supercritical or subcritical phases) | 76.45
323.21 K, 1096.6 kPa, Fluid (supercritical or subcritical phases) | 77.55
323.21 K, 1108.7 kPa, Fluid (supercritical or subcritical phases) | 78.69
323.21 K, 1120.7 kPa, Fluid (supercritical or subcritical phases) | 80.05
323.21 K, 1132.3 kPa, Fluid (supercritical or subcritical phases) | 81.01
323.21 K, 1143.9 kPa, Fluid (supercritical or subcritical phases) | 82.09
323.21 K, 1155.2 kPa, Fluid (supercritical or subcritical phases) | 83.24
323.21 K, 1165.7 kPa, Fluid (supercritical or subcritical phases) | 84.23
323.21 K, 1176.1 kPa, Fluid (supercritical or subcritical phases) | 85.31
323.21 K, 1188.5 kPa, Fluid (supercritical or subcritical phases) | 86.52
323.21 K, 1200.2 kPa, Fluid (supercritical or subcritical phases) | 87.81
323.21 K, 1211.6 kPa, Fluid (supercritical or subcritical phases) | 88.92
323.21 K, 1222.4 kPa, Fluid (supercritical or subcritical phases) | 90.01
323.21 K, 1232.6 kPa, Fluid (supercritical or subcritical phases) | 91.08
323.21 K, 1244.2 kPa, Fluid (supercritical or subcritical phases) | 92.41
323.21 K, 1254.9 kPa, Fluid (supercritical or subcritical phases) | 93.54
323.21 K, 1265.5 kPa, Fluid (supercritical or subcritical phases) | 94.64
323.21 K, 1276.2 kPa, Fluid (supercritical or subcritical phases) | 95.86
323.21 K, 1286.6 kPa, Fluid (supercritical or subcritical phases) | 97.01
323.21 K, 1298.7 kPa, Fluid (supercritical or subcritical phases) | 98.44
323.21 K, 1311.6 kPa, Fluid (supercritical or subcritical phases) | 99.8
323.21 K, 1324 kPa, Fluid (supercritical or subcritical phases) | 101.35
323.21 K, 1336 kPa, Fluid (supercritical or subcritical phases) | 102.77
323.21 K, 1347.5 kPa, Fluid (supercritical or subcritical phases) | 104.06
323.21 K, 1358.7 kPa, Fluid (supercritical or subcritical phases) | 105.47
323.21 K, 1369.5 kPa, Fluid (supercritical or subcritical phases) | 106.75
323.21 K, 1380 kPa, Fluid (supercritical or subcritical phases) | 108.11
323.21 K, 1392.5 kPa, Fluid (supercritical or subcritical phases) | 109.8
323.21 K, 1402.5 kPa, Fluid (supercritical or subcritical phases) | 110.98
323.21 K, 1410.5 kPa, Fluid (supercritical or subcritical phases) | 112.1
323.21 K, 1411.1 kPa, Fluid (supercritical or subcritical phases) | 112.29
323.21 K, 1411.8 kPa, Fluid (supercritical or subcritical phases) | 112.41
323.21 K, 1412.5 kPa, Fluid (supercritical or subcritical phases) | 112.57
323.21 K, 1413.3 kPa, Fluid (supercritical or subcritical phases) | 112.79
323.21 K, 1414.6 kPa, Fluid (supercritical or subcritical phases) | 113.23
323.21 K, 1415.9 kPa, Fluid (supercritical or subcritical phases) | 113.81
323.21 K, 1417 kPa, Fluid (supercritical or subcritical phases) | 114.07
323.21 K, 1417.8 kPa, Fluid (supercritical or subcritical phases) | 114.29
323.21 K, 1418.6 kPa, Fluid (supercritical or subcritical phases) | 115.65
323.21 K, 1418.8 kPa, Fluid (supercritical or subcritical phases) | 116.26
323.37 K, 1419.4 kPa, Liquid | 1174.23
323.37 K, 1421.5 kPa, Liquid | 1174.38
323.37 K, 1423.2 kPa, Liquid | 1174.38
323.37 K, 1425.7 kPa, Liquid | 1174.43
323.37 K, 1427.1 kPa, Liquid | 1174.45
323.37 K, 1432.2 kPa, Liquid | 1174.63
323.37 K, 1436.2 kPa, Liquid | 1174.81
323.37 K, 1440.4 kPa, Liquid | 1174.76
323.37 K, 1445.7 kPa, Liquid | 1175
323.37 K, 1451.5 kPa, Liquid | 1175.02
323.37 K, 1457.1 kPa, Liquid | 1175.21
323.37 K, 1466.8 kPa, Liquid | 1175.47
323.37 K, 1497.2 kPa, Liquid | 1176.12
323.37 K, 1510 kPa, Liquid | 1176.43
323.37 K, 1522.1 kPa, Liquid | 1176.69
323.37 K, 1537.1 kPa, Liquid | 1176.99
323.37 K, 1549.7 kPa, Liquid | 1177.31
323.37 K, 1563.1 kPa, Liquid | 1177.61
323.37 K, 1577.9 kPa, Liquid | 1178.01
323.37 K, 1593 kPa, Liquid | 1178.25
323.37 K, 1606 kPa, Liquid | 1178.65
323.37 K, 1618.2 kPa, Liquid | 1178.79
323.37 K, 1633 kPa, Liquid | 1179.18
323.37 K, 1650.5 kPa, Liquid | 1179.47
323.37 K, 1665.3 kPa, Liquid | 1179.86
323.37 K, 1679.6 kPa, Liquid | 1180.16
323.37 K, 1693.1 kPa, Liquid | 1180.45
323.37 K, 1699.6 kPa, Liquid | 1180.56
323.37 K, 1718.6 kPa, Liquid | 1180.95
323.37 K, 1737.4 kPa, Liquid | 1181.34
323.37 K, 1760 kPa, Liquid | 1181.89
323.37 K, 1778.2 kPa, Liquid | 1182.25
323.37 K, 1797.3 kPa, Liquid | 1182.59
323.37 K, 1819.1 kPa, Liquid | 1183.13
323.37 K, 1845.8 kPa, Liquid | 1183.69
323.37 K, 1870.4 kPa, Liquid | 1184.11
323.37 K, 1897.4 kPa, Liquid | 1184.74
323.37 K, 1924.8 kPa, Liquid | 1185.37
323.37 K, 1943.5 kPa, Liquid | 1185.64
323.37 K, 1970 kPa, Liquid | 1186.24
323.37 K, 1988.8 kPa, Liquid | 1186.54
323.37 K, 2013.8 kPa, Liquid | 1187.15
323.37 K, 2040.4 kPa, Liquid | 1187.71
323.37 K, 2074.7 kPa, Liquid | 1188.33
323.37 K, 2102.6 kPa, Liquid | 1188.84
323.37 K, 2129.9 kPa, Liquid | 1189.44
323.37 K, 2157.7 kPa, Liquid | 1190.03
323.37 K, 2186.2 kPa, Liquid | 1190.47
323.37 K, 2213.3 kPa, Liquid | 1191.16
323.37 K, 2277.1 kPa, Liquid | 1192.28
323.37 K, 2311.9 kPa, Liquid | 1192.94
323.37 K, 2338 kPa, Liquid | 1193.41
323.37 K, 2366.9 kPa, Liquid | 1194
323.37 K, 2396.7 kPa, Liquid | 1194.59
323.37 K, 2428 kPa, Liquid | 1195.18
323.37 K, 2456.3 kPa, Liquid | 1195.7
323.37 K, 2482.6 kPa, Liquid | 1196.22
323.37 K, 2511.2 kPa, Liquid | 1196.77
323.37 K, 2547.6 kPa, Liquid | 1197.4
323.37 K, 2588.4 kPa, Liquid | 1198.21
323.37 K, 2628 kPa, Liquid | 1198.83
323.37 K, 2671.3 kPa, Liquid | 1199.65
323.37 K, 2714.7 kPa, Liquid | 1200.41
323.37 K, 2754.7 kPa, Liquid | 1201.07
323.37 K, 2795.1 kPa, Liquid | 1201.67
323.37 K, 2833.2 kPa, Liquid | 1202.46
323.37 K, 2876 kPa, Liquid | 1203.06
323.37 K, 2913.9 kPa, Liquid | 1203.87
323.37 K, 2953 kPa, Liquid | 1204.53
323.37 K, 2989.2 kPa, Liquid | 1205.13
323.37 K, 3027.6 kPa, Liquid | 1205.88
323.37 K, 3069.8 kPa, Liquid | 1206.59
323.37 K, 3107.8 kPa, Liquid | 1207.26
323.37 K, 3148.5 kPa, Liquid | 1207.95
